Calls of active or inactive are those of the source. The rule behind the calls is not given here.
Tested on: parental cell line counter screen, S1P1 agonist assay readout
Experiment: signal in parental cells, counter-screen for S1P1 agonist project (AID 467);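 note: agonist potency measured against forskolin stimulation plus an EC20 level of SEW2871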

SMILES | EC50
COC(=O)c1sc(NC(=O)c2ccc(OC)cc2OC)nc1C | > 95.1 µM (inactive)
Oc1ccc(N2CCN(c3ncnc4sc5c(c34)CCC5)CC2)cc1 | > 95.1 µM (inactive)
Cn1nc(CC(=O)Nc2ccc3c(c2)OCCO3)c2ccccc2c1=O | > 30 µM (inactive)
CCN(CC)C(=O)Oc1ccc2c(=O)c(-c3ccccc3)coc2c1 | > 95.1 µM (inactive)
c1ccc2c(c1)oc1c(N3CCN(Cc4ccc5c(c4)OCO5)CC3)ncnc12 | 21.3 µM (inactive)
CCCOc1ccc(S(=O)(=O)NCc2ccc(OC)cc2)cc1 | > 30 µM (inactive)
CCOc1ccc(C(=O)Nc2ccc(Cl)cn2)cc1Cl | > 95.1 µM (inactive)
Cc1ccc2nc(NC(=O)CSc3nc4c(c(=O)n3C)SC(C)C4)sc2c1 (stereo unspecified) | > 95.1 µM (inactive)
COc1ccccc1N/C(N)=N/c1nc(CSc2ccc(C)cc2)cc(=O)[nH]1 | > 95.1 µM (inactive)
COc1ccccc1-n1nnnc1SCc1cc2c(cc1Br)OCO2 | > 95.1 µM (inactive)
Cc1ccc(O)c(NC(=O)CCC2CCCCC2)c1 | 50.1 µM (inactive)
C=CCn1c(SCC(=O)c2cccs2)nc2sc(CC)cc2c1=O | 58.6 µM (inactive)
Cc1noc(/C=C/N(C)C)c1S(=O)(=O)N1CCN(c2ccccc2)CC1 | > 95.1 µM (inactive)
COc1ccc(-c2cn3c(C)c(C(=O)Nc4ccncc4)sc3n2)cc1 | > 95.1 µM (inactive)
CC(C)(C)SCCNS(=O)(=O)c1ccccc1 | > 95.1 µM (inactive)
CCCC(=O)Nc1ccc2oc(-c3ccc(OC)c(Br)c3)nc2c1 | > 95.1 µM (inactive)
Cc1ccc(-c2nc(COC(=O)c3c(C)noc3C)cs2)cc1 | > 95.1 µM (inactive)
Clc1ccc(CSc2nnc(-c3ccncc3)o2)c(Cl)c1 | > 95.1 µM (inactive)
O=C(Nc1ccc(O)cc1)c1cc2n(n1)C(C(F)(F)F)CC(c1ccco1)N2 (stereo unspecified) | > 95.1 µM (inactive)
CCCCOc1ccc(S(=O)(=O)Nc2cccnc2)cc1 | > 95.1 µM (inactive)
COc1ccc(-c2nc(-c3ccncc3)no2)cc1OC | > 95.1 µM (inactive)
Clc1ccc(NCn2cncn2)nc1 | > 95.1 µM (inactive)
COc1cc(C(=O)N2CCN(S(=O)(=O)c3ccc(C)cc3)CC2)ccc1OCc1c(C)noc1C | > 95.1 µM (inactive)
CN(Cc1cccs1)c1ncnc2sccc12 | > 30 µM (inactive)
CCC(=O)Nc1ccc2c(c1)C(=O)N(C1CCCCC1)C2=O | > 95.1 µM (inactive)
Cc1nn(Cc2ccc(Cl)c(Cl)c2)c(C)c1NC(=O)c1cc(C2CC2)on1 | 41.2 µM (inactive)

SMILES | EC50
COC(=O)CS(=O)(=O)c1nnc([C@H](Cc2ccccc2)NC(=O)OC(C)(C)C)o1 | 3.68 µM
Cn1ncnc2c(=O)n(C)c(=O)nc1-2 | 1.8 µM
CC(C)c1ccc2oc(-c3ccc(N)cc3)nc2c1 | > 30 µM (inactive)
COc1ccc(CNc2cc(C)nc3ncnn23)c(OC)c1 | > 95.1 µM (inactive)
COc1cccc(N2CCN(c3ncnc4c3[nH]c3ccccc34)CC2C)c1 (stereo unspecified) | 4.8 µM
CN(C)c1oc(-c2ccc(OCc3ccccc3)cc2)nc1C#N | > 95.1 µM (inactive)
Cc1ccnc(SCC(=O)Nc2sc3c(c2C#N)CCCC3)n1 | > 30 µM (inactive)
COc1ccccc1Oc1ccc2c(c1)C(=O)N(c1cccc(O)c1)C2=O | > 30 µM (inactive)
O=C(C1CC1)N1CCc2cc(S(=O)(=O)NCC3COc4ccccc4O3)ccc21 (stereo unspecified) | > 30 µM (inactive)
Cc1nc2ccc3nc(NC(=O)C4COc5ccccc5O4)sc3c2s1 (stereo unspecified) | > 95.1 µM (inactive)
O=S1(=O)C=C(Sc2nnc(-c3ccccc3)o2)c2ccccc21 | 3.16 µM
Clc1ccc(CCNc2ncnc3nc[nH]c23)cc1 | 33.6 µM (inactive)
Cc1cc(C(=O)CC#N)c(C)n1-c1ccc(OC(F)F)cc1 | > 95.1 µM (inactive)
CCOc1ccc(C(=O)Nc2c(C(N)=O)oc3ccccc23)cc1 | > 95.1 µM (inactive)
O=C(CSc1ncnc2c1oc1ccccc12)N1CCCc2ccccc21 | > 10 µM (inactive)
CC(C)Cc1cc(C(=O)Nc2cc(Br)ccc2O)no1 | > 10 µM (inactive)
CCNc1nc2c(c(=O)n(C)c(=O)n2C)n1Cc1ccc(Cl)cc1 | > 95.1 µM (inactive)
CCC(=NC(C)c1ccccc1)c1c(O)n(C)c(=O)n(C)c1=O (stereo unspecified) | > 30 µM (inactive)
N#Cc1nc(COc2ccc(Cl)cc2Cl)oc1N1CCN(c2ccccc2)CC1 | > 95.1 µM (inactive)
Cc1ccc2nc(C(F)(F)F)c(C#N)c(N)c2c1 | 6.47 µM
CCC1CCCCN1C(=O)CSc1nnc(-c2c[nH]c3ccccc23)o1 (stereo unspecified) | > 30 µM (inactive)
CCCC(=O)Nc1ccc(-c2nc3cc(C)c(C)cc3o2)cc1 | > 95.1 µM (inactive)
COC(=O)c1ccc(C(c2c(N)n(CC(C)C)c(=O)[nH]c2=O)N2CCN(c3ccccc3)CC2)cc1 (stereo unspecified) | > 95.1 µM (inactive)
Cc1ccc(-c2nc(CSCC(=O)N3CCN(c4ccccn4)CC3)c(C)o2)cc1 | > 30 µM (inactive)
C=CS(=O)(=O)c1ccc(Oc2ccc(S(=O)(=O)C=C)cc2)cc1 | 1.06 µM

From PubChem BioAssay AID467 (The Scripps Research Institute Molecular Screening Center, 2006)
